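Assay format: 96-well plates, 48-hour exposure. GI50 = concentration required for 50% inhibition of growth. Definition used: TGI = concentration required for complete inhibition of growth.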
What was measured:
Experiment in all cases: inhibition of tumour cell growth, NCI panel, 48 h
KM12 colon = test system: KM12 colon
SK-OV-3 ovarian = test system: SK-OV-3 ovarian
SR leukemia = test system: SR leukemia
HL-60(TB) leukemia = test system: HL-60(TB) leukemia
SF-295 CNS = test system: SF-295 CNS
SK-MEL-5 melanoma = test system: SK-MEL-5 melanoma
NCI-H522 lung = test system: NCI-H522 lung
NCI-H23 lung = test system: NCI-H23 lung
EKVX NSCLC = test system: EKVX NSCLC
OVCAR-8 ovarian = test system: OVCAR-8 ovarian
M14 melanoma = test system: M14 melanoma
HCC-2998 colon = test system: HCC-2998 colon
RPMI-8226 leukemia = test system: RPMI-8226 leukemia
SN12C renal = test system: SN12C renal
MALME-3M melanoma = test system: MALME-3M melanoma
UACC-62 melanoma = test system: UACC-62 melanoma
A549 NSCLC = test system: A549 NSCLC
SF-268 CNS = test system: SF-268 CNS
OVCAR-3 ovarian = test system: OVCAR-3 ovarian
MCF7 breast = test system: MCF7 breast
A498 renal = test system: A498 renal
MDA-MB-231 breast = test system: MDA-MB-231 breast
BT-549 breast = test system: BT-549 breast
UO-31 renal = test system: UO-31 renal
CCRF-CEM leukemia = test system: CCRF-CEM leukemia
HCT-15 colon = test system: HCT-15 colon
SK-MEL-2 melanoma = test system: SK-MEL-2 melanoma
786-0 renal = test system: 786-0 renal
LOX IMVI melanoma = test system: LOX IMVI melanoma
ACHN renal = test system: ACHN renal
UACC-257 melanoma = test system: UACC-257 melanoma
HS 578T breast = test system: HS 578T breast
U251 CNS = test system: U251 CNS
NCI/ADR-RES ovarian = test system: NCI/ADR-RES ovarian
K-562 leukemia = test system: K-562 leukemia
SNB-75 CNS = test system: SNB-75 CNS
HOP-92 NSCLC = test system: HOP-92 NSCLC
PC-3 prostate = test system: PC-3 prostate
SK-MEL-28 melanoma = test system: SK-MEL-28 melanoma
OVCAR-5 ovarian = test system: OVCAR-5 ovarian
COLO 205 colon = test system: COLO 205 colon
MDA-MB-435 = test system: MDA-MB-435
MOLT-4 leukemia = test system: MOLT-4 leukemia
HCT-116 colon = test system: HCT-116 colon
OVCAR-4 ovarian = test system: OVCAR-4 ovarian
CAKI-1 renal = test system: CAKI-1 renal
NCI-H226 lung = test system: NCI-H226 lung
HOP-62 NSCLC = test system: HOP-62 NSCLC
TK-10 renal = test system: TK-10 renal
T-47D breast = test system: T-47D breast
SNB-19 CNS = test system: SNB-19 CNS
IGROV1 ovarian = test system: IGROV1 ovarian
SW-620 colon = test system: SW-620 colon
NCI-H460 lung = test system: NCI-H460 lung
DU-145 prostate = test system: DU-145 prostate
HT29 colon = test system: HT29 colon
SF-539 CNS = test system: SF-539 CNS

## Cc1cc(NCCCN(C)C)c2ccc3c(ccc4c(NCCCN(C)C)cc(C)nc43)c2n1
KM12 colon
  GI50: 205 nM
  TGI: 570 nM
SK-OV-3 ovarian
  GI50: 230 nM
  TGI: 507 nM
SR leukemia
  GI50: 354 nM
  TGI: > 100000 nM
HL-60(TB) leukemia
  GI50: 37.5 nM
SF-295 CNS
  GI50: 205 nM
  TGI: 745 nM
SK-MEL-5 melanoma
  GI50: 275 nM
  TGI: 945 nM
NCI-H522 lung
  GI50: 202 nM
  TGI: 554 nM
NCI-H23 lung
  GI50: 230 nM
  TGI: 673 nM
EKVX NSCLC
  GI50: 246 nM
  TGI: 821 nM
OVCAR-8 ovarian
  GI50: 114 nM
  TGI: 295 nM
M14 melanoma
  GI50: 194 nM
  TGI: 397 nM
HCC-2998 colon
  GI50: 134 nM
  TGI: 323 nM
RPMI-8226 leukemia
  GI50: 48.9 nM
  TGI: 147 nM
SN12C renal
  GI50: 157 nM
  TGI: 553 nM
MALME-3M melanoma
  GI50: 244 nM
  TGI: 894 nM
UACC-62 melanoma
  GI50: 283 nM
  TGI: 930 nM
A549 NSCLC
  GI50: 64.3 nM
  TGI: 411 nM
SF-268 CNS
  GI50: 176 nM
  TGI: 393 nM
OVCAR-3 ovarian
  GI50: 191 nM
  TGI: 444 nM
MCF7 breast
  GI50: 63.5 nM
  TGI: 302 nM
A498 renal
  GI50: 189 nM
  TGI: 409 nM
MDA-MB-231 breast
  GI50: 175 nM
  TGI: 468 nM
BT-549 breast
  GI50: 1850 nM
  TGI: 3530 nM
UO-31 renal
  GI50: 231 nM
  TGI: 557 nM
CCRF-CEM leukemia
  GI50: 158 nM
  TGI: 478 nM
HCT-15 colon
  GI50: 191 nM
  TGI: 543 nM
SK-MEL-2 melanoma
  GI50: 228 nM
  TGI: 550 nM
786-0 renal
  GI50: 202 nM
  TGI: 506 nM
LOX IMVI melanoma
  GI50: 176 nM
  TGI: 401 nM
ACHN renal
  GI50: 238 nM
  TGI: 744 nM
UACC-257 melanoma
  GI50: 199 nM
  TGI: 499 nM
HS 578T breast
  GI50: 197 nM
  TGI: 667 nM
U251 CNS
  GI50: 199 nM
  TGI: 541 nM
NCI/ADR-RES ovarian
  GI50: 583 nM
  TGI: 3380 nM
K-562 leukemia
  GI50: 454 nM
  TGI: > 100000 nM
SNB-75 CNS
  GI50: 165 nM
  TGI: 420 nM
HOP-92 NSCLC
  GI50: 66.5 nM
  TGI: 298 nM
PC-3 prostate
  GI50: 199 nM
  TGI: 609 nM
SK-MEL-28 melanoma
  GI50: 187 nM
  TGI: 413 nM
OVCAR-5 ovarian
  GI50: 246 nM
  TGI: 909 nM
COLO 205 colon
  GI50: 183 nM
  TGI: 408 nM
MDA-MB-435
  GI50: 226 nM
  TGI: 539 nM
MOLT-4 leukemia
  GI50: 270 nM
HCT-116 colon
  GI50: 170 nM
  TGI: 439 nM
OVCAR-4 ovarian
  GI50: 162 nM
  TGI: 508 nM
CAKI-1 renal
  GI50: 217 nM
  TGI: 673 nM
NCI-H226 lung
  GI50: 215 nM
  TGI: 880 nM
HOP-62 NSCLC
  GI50: 196 nM
  TGI: 489 nM
TK-10 renal
  GI50: 240 nM
  TGI: 573 nM
T-47D breast
  GI50: 521 nM
  TGI: 2540 nM
SNB-19 CNS
  GI50: 181 nM
  TGI: 514 nM
IGROV1 ovarian
  GI50: 152 nM
  TGI: 377 nM
SW-620 colon
  GI50: 185 nM
  TGI: 493 nM
NCI-H460 lung
  GI50: 171 nM
  TGI: 441 nM
DU-145 prostate
  GI50: 159 nM
  TGI: 436 nM
HT29 colon
  GI50: 149 nM
  TGI: 503 nM
SF-539 CNS
  GI50: 193 nM
  TGI: 487 nM

From PubChem BioAssay (NCI)
